# Measurements taken from patent US11046699B2, “Pyrazolo-pyrimidin-amino-cycloalkyl compounds and their therapeutic uses” (RAPT THERAPEUTICS, INC., priority 2018, dated 2021).
# Read-outs that look alike come from different tables or passages of the source.
# Biological target: GCN2 (Homo sapiens, UniProt Q9P2K8)
# Assay: GCN2 enzymatic endpoint assay: phosphorylation of GFP-eIF2α measured by TR-FRET (Lanthascreen)
# Format: biochemical
# In short: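 Endpoint kinase reaction with 2 μM ATP and 80 nM GFP-labelled eIF2α substrate, run at room temperature for 90 min, then stopped with EDTA. Phospho-substrate detected by terbium-antibody TR-FRET, activity taken as the 520/495 nm emission ratio.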
# [1] = tested as described in Example 77, compound and/or hydrochloride, dihydrochloride or trifluoroacetic acid salt, read-out: IC 50 Activity
# [2] = GCN2 biochemical IC50, 4 nM GCN2, 2 μM ATP, 80 nM GFP-eIF2α, 90 min RT, read-out: GCN2 activity
# GCN2, sequence (Q9P2K8 whole entry): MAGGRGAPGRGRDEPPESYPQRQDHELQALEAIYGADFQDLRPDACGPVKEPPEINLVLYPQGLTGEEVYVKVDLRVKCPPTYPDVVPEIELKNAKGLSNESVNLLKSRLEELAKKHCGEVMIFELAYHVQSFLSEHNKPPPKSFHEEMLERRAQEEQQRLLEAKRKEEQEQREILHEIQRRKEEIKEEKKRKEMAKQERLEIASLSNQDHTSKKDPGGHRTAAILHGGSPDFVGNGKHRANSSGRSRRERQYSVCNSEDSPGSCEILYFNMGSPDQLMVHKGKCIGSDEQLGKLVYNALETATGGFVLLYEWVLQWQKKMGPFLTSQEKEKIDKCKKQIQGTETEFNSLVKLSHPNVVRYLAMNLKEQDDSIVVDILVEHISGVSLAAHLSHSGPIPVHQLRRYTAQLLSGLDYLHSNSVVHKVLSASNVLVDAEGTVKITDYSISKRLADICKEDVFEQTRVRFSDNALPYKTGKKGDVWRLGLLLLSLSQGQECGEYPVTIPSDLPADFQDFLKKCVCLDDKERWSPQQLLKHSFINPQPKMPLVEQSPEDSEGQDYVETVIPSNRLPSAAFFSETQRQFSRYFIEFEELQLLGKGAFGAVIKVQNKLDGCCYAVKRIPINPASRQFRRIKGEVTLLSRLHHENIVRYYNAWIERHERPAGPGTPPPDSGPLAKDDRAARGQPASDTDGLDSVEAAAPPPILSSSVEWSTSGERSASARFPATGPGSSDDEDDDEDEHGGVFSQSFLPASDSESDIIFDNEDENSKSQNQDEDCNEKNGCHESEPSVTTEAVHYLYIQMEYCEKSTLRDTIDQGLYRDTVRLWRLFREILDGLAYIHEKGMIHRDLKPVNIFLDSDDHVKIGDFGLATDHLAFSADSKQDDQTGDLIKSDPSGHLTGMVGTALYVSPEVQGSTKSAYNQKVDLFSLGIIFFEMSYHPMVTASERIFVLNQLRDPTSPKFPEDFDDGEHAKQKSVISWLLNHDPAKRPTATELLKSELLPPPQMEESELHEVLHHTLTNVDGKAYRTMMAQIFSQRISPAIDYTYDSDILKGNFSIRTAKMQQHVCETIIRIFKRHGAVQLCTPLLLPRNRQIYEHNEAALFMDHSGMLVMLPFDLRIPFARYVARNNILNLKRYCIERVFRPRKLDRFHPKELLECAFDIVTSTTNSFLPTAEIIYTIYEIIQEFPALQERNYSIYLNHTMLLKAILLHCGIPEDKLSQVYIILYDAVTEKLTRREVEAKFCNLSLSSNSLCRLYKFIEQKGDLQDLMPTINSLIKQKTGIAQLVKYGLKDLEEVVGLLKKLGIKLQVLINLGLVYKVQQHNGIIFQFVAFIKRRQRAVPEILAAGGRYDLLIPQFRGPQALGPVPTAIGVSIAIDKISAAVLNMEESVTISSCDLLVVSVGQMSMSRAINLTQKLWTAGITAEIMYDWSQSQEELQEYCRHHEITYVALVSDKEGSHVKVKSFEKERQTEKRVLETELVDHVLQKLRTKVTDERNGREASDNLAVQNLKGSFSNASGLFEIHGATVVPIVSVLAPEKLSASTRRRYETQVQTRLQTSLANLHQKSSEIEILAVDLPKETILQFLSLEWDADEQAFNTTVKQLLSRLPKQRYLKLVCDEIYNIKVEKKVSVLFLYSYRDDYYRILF
Compound,IC50 [1] [nM],IC50 [2] [nM]
"O=S(=O)(NC1CC1)[C@@H]1CC[C@@H](Nc2ncc3c(Br)nn(-c4ccc5ncccc5c4)c3n2)C1 [(1R,3R)-3-((3-bromo-1-(quinolin-6-yl)-1H-pyrazolo[3,4-d]pyrimidin-6-yl)amino)-N-cyclopropylcyclopentane-1-sulfonamide]",25 to 200,
"N#Cc1cc(-n2nc(Br)c3cnc(N[C@@H]4CC[C@@H](C(=O)N[C@@H]5CCNC5)C4)nc32)cc2cccnc12 [(1R,3R)-3-((3-bromo-1-(8-cyanoquinolin-6-yl)-1H-pyrazolo[3,4-d]pyrimidin-6-yl)amino)-N-((R)-pyrrolidin-3-yl)cyclopentane-1-carboxamide]",< 25,
"CNC(=O)[C@]1(CC(F)F)CC[C@@H](Nc2ncc3c(Br)nn(-c4ccc(-c5nnc(C)o5)cc4)c3n2)C1 [(1R,3R)-3-[[3-bromo-1-[4-(5-methyl-1,3,4-oxadiazol-2-yl)phenyl]pyrazolo[3,4-d]pyrimidin-6-yl]amino]-1-(2,2-difluoroethyl)-N-methyl-cyclopentanecarboxamide]",25 to 200,
CNc1ncc2cc(-n3nc(Br)c4cnc(N[C@@H]5CCC(C)(O)C5)nc43)ccc2n1 (stereo partly shown),25 to 200,
CNC(=O)[C@]1(C)CC[C@@H](Nc2ncc3c(Br)nn(-c4cc(Cl)cc([C@H](C)N(C)C)c4)c3n2)C1,25 to 200,
"CNC(=O)[C@]1(C)CC[C@@H](Nc2ncc3c(Br)nn(-c4cc(CCO)c5nc(C)ccc5c4)c3n2)C1 [(1R,3R)-3-[[3-bromo-1-[8-(2-hydroxy-ethyl)-2-methyl-6-quinolyl]pyrazolo[3,4-d]pyrimidin-6-yl]amino]-N,1-dimethyl-cyclopentanecarboxamide]",25 to 200,
CNC(=O)[C@]1(C)CC[C@@H](Nc2ncc3c(Br)nn(-c4cc(C#N)cc(CN)c4)c3n2)C1,25 to 200,
CNC(=O)[C@]1(C)CC[C@@H](Nc2ncc3c(Br)nn(-c4cc(CCN)c5cnccc5c4)c3n2)C1,< 25,
"CC[C@@]1(C(=O)NC)CC[C@@H](Nc2ncc3c(Br)nn(-c4cc(F)c5ncccc5c4)c3n2)C1 [(1R,3R)-3-[[3-bromo-1-(8-fluoro-6-quinolyl)pyrazolo[3,4-d]pyrimidin-6-yl]amino]-1-ethyl-N-methyl-cyclopentanecarboxamide]",< 25,
"CNC(=O)[C@]1(C)CC[C@@H](Nc2ncc3c(Br)nn(-c4cc(CCNC(=O)C(C)C)c5ncccc5c4)c3n2)C1 [(1R,3R)-3-[[3-bromo-1-[8-[2-(2-methyl-propanoylamino)ethyl]-6-quinolyl]pyrazolo [3,4-d]pyrimidin-6-yl]amino]-N,1-dimethyl-cyclopentanecarboxamide]",25 to 200,
"CC(C)NC(=O)[C@]1(C)CC[C@@H](Nc2ncc3c(Br)nn(-c4cc(F)c5ncccc5c4)c3n2)C1 [(1R,3R)-3-[[3-bromo-1-(8-fluoro-6-quinolyl)pyrazolo[3,4-d]pyrimidin-6-yl]amino]-N-isopropyl-1-methyl-cyclopentanecarboxamide]",< 25,
C[C@H](N)c1cc(Cl)cc(-n2nc(Br)c3cnc(N[C@@H]4CCC5(CC(=O)N(C)C5=O)C4)nc32)c1 (stereo partly shown),25 to 200,
"Cc1nnc(-c2ccc(-n3nc(Br)c4cnc(N[C@@H]5CCC(S(C)(=O)=O)C5)nc43)cc2)s1 (stereo partly drawn) [3-bromo-N-[(1R)-3-methylsulfonylcyclo-pentyl]-1-[4-(5-methyl-1,3,4-thiadiazol-2-yl)phenyl]pyrazolo[3,4-d]pyrimidin-6-amine]",25 to 200,
"CN1CN(C(=O)[C@@]2(C)CC[C@@H](Nc3ncc4c(Br)nn(-c5cc(F)c6ncccc6c5)c4n3)C2)CC1=O [1-[(1S,3R)-3-[[3-bromo-1-(8-fluoro-6-quinolyl)pyrazolo[3,4-d]pyrimidin-6-yl]amino]-1-methyl-cyclopentanecarbonyl]-3-methyl-imidazolidin-4-one]",25 to 200,
O=C(O)C1CN(C(=O)[C@@H]2CC[C@@H](Nc3ncc4c(Br)nn(-c5ccc6ncccc6c5)c4n3)C2)CCN1 (mixture of isomers),< 25,
"CNC(=O)[C@]1(C)CC[C@@H](Nc2ncc3c(Br)nn(-c4ccc(-c5nccs5)cc4)c3n2)C1 [(1R,3R)-3-[[3-bromo-1-(4-thiazol-2-ylphenyl)pyrazolo[3,4-d]pyrimidin-6-yl]amino]-N,1-dimethyl-cyclopentane-carboxamide]",25 to 200,
"CNC(=O)[C@H]1CC[C@@H](Nc2ncc3c(Br)nn(-c4cnc5c(C#N)cccc5c4)c3n2)C1 [(1S,3R)-3-[[3-bromo-1-(8-cyano-3-quinolyl)pyrazolo[3,4-d]pyrimidin-6-yl]amino]-N-methyl-cyclopentanecarboxamide]",25 to 200,

Compound,IC50 [1] [nM],IC50 [2] [nM]
"CNC(=O)[C@]1(C)CC[C@@H](Nc2ncc3c(Br)nn(-c4cc(F)c5nc(C)cc(Cl)c5c4)c3n2)C1 [(1R,3R)-3-[[3-bromo-1-(4-chloro-8-fluoro-2-methyl-6-quinolyl)pyrazolo[3,4-d]pyrimidin-6-yl]amino]-N,1-dimethyl-cyclopentanecarboxamide]",25 to 200,
"CNC(=O)[C@]1(C)CC[C@@H](Nc2ncc3c(Br)nn(-c4cc(C#N)cc(OCC#N)c4)c3n2)C1 [(1R,3R)-3-[[3-bromo-1-[3-cyano-5-(cyanomethoxy)phenyl]pyrazolo[3,4-d]pyrimidin-6-yl]amino]-N,1-dimethyl-cyclopentanecarboxamide]",25 to 200,
"O=C([C@@H]1CC[C@@H](Nc2ncc3c(Br)nn(-c4ccc5ncccc5c4)c3n2)C1)N1CCNCC1 [((1R,3R)-3-((3-bromo-1-(quinolin-6-yl)-1H-pyrazolo[3,4-d]pyrimidin-6-yl)amino)cyclo-pentyl)(piperazin-1-yl)methanone]",25 to 200,
"O=C(NCCOC(F)(F)F)[C@@H]1CC[C@@H](Nc2ncc3c(Br)nn(-c4ccc5ncccc5c4)c3n2)C1 [(1R,3R)-3-((3-bromo-1-(quinolin-6-yl)-1H-pyrazolo[3,4-d]pyrimidin-6-yl)amino)-N-(2-(trifluoromethoxy)ethyl)cyclopentane-1-carboxamide]",200 to 500,
"CNC(=O)C1(C)CC[C@@H](Nc2ncc3c(Br)nn(-c4ccc5nc(OC)ccc5c4)c3n2)C1 (stereo partly drawn) [(3R)-3-((3-bromo-1-(2-methoxyquinolin-6-yl)-1H-pyrazolo[3,4-d]pyrimidin-6-yl)amino)-N,1-dimethylcyclopentane-1-carboxamide]",25 to 200,
"CNC(=O)[C@]1(C)CC[C@@H](Nc2ncc3c(Br)nn(-c4cccc(NC(=O)c5ccn[nH]5)c4)c3n2)C1 [N-[3-[3-bromo-6-[[(1R,3R)-3-methyl-3-(methylcarbamoyl)cyclopentyl]amino]pyrazolo[3,4-d]pyrimidin-1-yl]phenyl]-1H-pyrazole-5-carboxamide]",25 to 200,
"COCCNC(=O)[C@@H]1CC[C@@H](Nc2ncc3c(Br)nn(-c4ccc(-c5ncco5)cc4)c3n2)C1 [Example 26, (1R,3R)-3-((3-bromo-1-(4-(oxazol-2-yl)phenyl)-1H-pyrazolo[3,4-d]pyrimidin-6-yl)amino)-N-(2-methoxyethyl)cyclopentane-1-carboxamide]",,25 to 200
"C[C@@H]1COCCN1C(=O)[C@@H]1CC[C@@H](Nc2ncc3c(Br)nn(-c4ccc5ncccc5c4)c3n2)C1 [((1R,3R)-3-((3-bromo-1-(quinolin-6-yl)-1H-pyrazolo[3,4-d]pyrimidin-6-yl)amino)cyclo-pentyl)((R)-3-methylmorpholino)methanone]",25 to 200,
CNC(=O)[C@]1(C)CC[C@@H](Nc2ncc3c(Br)nn(-c4cc(Cl)c(F)c(CNS(C)(=O)=O)c4)c3n2)C1,25 to 200,
"COCCNC(=O)[C@@H]1CC[C@@H](Nc2ncc3c(Br)nn(-c4ccc5ncccc5c4)c3n2)C1 [Example 1, (1R,3R)-3-((3-bromo-1-(quinolin-6-yl)-1H-pyrazolo[3,4-d]pyrimidin-6-yl)amino)-N-(2-methoxyethyl)cyclopentane-1-carboxamide]",,< 25
"CNC(=O)[C@@H]1CC[C@@H](Nc2ncc3c(Br)nn(-c4ccc5c(C)nn(C)c5c4)c3n2)C1 [(1R,3R)-3-[[3-bromo-1-(1,3-dimethylindazol-6-yl)pyrazolo[3,4-d]pyrimidin-6-yl]amino]-N-methyl-cyclopentanecarboxamide]",25 to 200,
"CNC(=O)[C@]1(C)CC[C@@H](Nc2ncc3c(Br)nn(-c4ccc5c(c4)CCN(C(=O)C4CNC4)C5)c3n2)C1 [(1R,3R)-3-[[1-[2-(azetidine-3-carbonyl)-3,4-dihydro-1H-isoquinolin-6-yl]-3-bromo-pyrazolo[3,4-d]pyrimidin-6-yl]amino]-N,1-dimethyl-cyclopentanecarboxamide]",25 to 200,
"CNC(=O)[C@@H]1CC[C@@H](Nc2ncc3c(Br)nn(-c4ccc5nc(OC)ccc5c4)c3n2)C1 [(1R,3R)-3-[[3-bromo-1-(2-methoxy-6-quinolyl)pyrazolo[3,4-d]pyrimidin-6-yl]amino]-N-methyl-cyclopentanecarboxamide]",25 to 200,
"CNC(=O)[C@]1(CC(F)F)CC[C@@H](Nc2ncc3c(Br)nn(-c4ccc(-c5cccnc5)c(C#N)c4)c3n2)C1 [(1R,3R)-3-[[3-bromo-1-[3-cyano-4-(3-pyridyl)phenyl]pyrazolo[3,4-d]pyrimidin-6-yl]amino]-1-(2,2-difluoroethyl)-N-methyl-cyclopentanecarboxamide]",25 to 200,
"COCCNC(=O)[C@@H]1CC[C@@H](Nc2ncc3c(Br)nn(-c4cnc5ccc(F)cc5c4)c3n2)C1 [(1R,3R)-3-((3-bromo-1-(6-fluoroquinolin-3-yl)-1H-pyrazolo[3,4-d]pyrimidin-6-yl)amino)-N-(2-methoxyethyl)cyclopentane-1-carboxamide]",500 to 1000,
"COCCNC(=O)[C@@H]1CC[C@@H](Nc2ncc3c(Br)nn(-c4ccc5nccn5c4)c3n2)C1 [(1R,3R)-3-((3-bromo-1-(imidazo[1,2-a]pyridin-6-yl)-1H-pyrazolo[3,4-d]pyrimidin-6-yl)amino)-N-(2-methoxyethyl)cyclopentane-1-carboxamide]",500 to 1000,
"CNC(=O)[C@]1(C)CC[C@@H](Nc2ncc3c(Br)nn(-c4cc(OCC5(F)CNC5)cc(OC(F)(F)F)c4)c3n2)C1 [(1R,3R)-3-[[3-bromo-1-[3-[(3-fluoroazetidin-3-yl)methoxy]-5-(trifluoromethoxy)phenyl]pyrazolo[3,4-d]pyrimidin-6-yl]amino]-N,1-dimethyl-cyclopentanecarboxamide]",25 to 200,
